Measurements as given in US12479866B2, “Boron-containing rho kinase inhibitors” (Percipiad, Inc., priority 2019, dated 2025).

Legend:
[1] = test system: New Zealand White rabbits; experiment: Sodium hyaluronate-induced acute ocular hypertension, IOP; assay type: in vivo, rabbit
Excerpt: In all studies, male New Zealand White rabbits were acclimatized for one week before the study. Animals were given food and water ad libitum. Body weights of rabbits ranged from 2 to 3 kg. Animals were trained for the IOP measurement procedure during the acclimation period in order to reduce stress and obtaining more accurate measurements during the study. IOP measurements were taken using the Icare® TONOVET Plus tonometer. […] IOP readings are obtained only when the tonometer is held an appropriate distance and in the correct plane relative to the ocular surface. Green light appears when the orientation is correct, thereby minimizing operator errors. Measurements were performed at the same time of day by the same person using the same instrument. Sodium hyaluronate-induced acute ocular hypertension study. Sodium hyaluronate injection into the anterior chamber of rabbit eye creates acute ocular hypertensive status. […] Another group of four animals with elevated IOP received saline only in right eyes. The left eyes of both groups were instilled topically with 30 μl saline eye drop.

HEK293 cells = experiment: CellTiter-Glo Luminescent Cell Viability Assay; details: HEK293 cells, 25, 2.5, or 0.25 μM, two days
Description: We used CellTiter-Glo® Luminescent Cell Viability Assay (Promega, cat #G7573) to determine the number of viable cells in culture based on quantitation of the ATP present, which signals the presence of metabolically active cells. • 1. Prepared HEK293 suspension culture cells (ThermoFisher, cat #A14635) and added 50 μl cells in media (12,500 cells) to each well of a white, opaque-walled 96-well plate in triplicate. • 2. […] Incubated at 37° C. and 5% CO2 for two days. • 4. Added 100 μl of CellTiter-Glo® Reagent to each well and mix contents for 2 minutes on an orbital shaker to induce cell lysis. • 5. Recorded luminescence using a plate luminometer.

[2] = Solubility Assay #1, equilibrium solubility in pH 7.4 aqueous buffer; details: pH 7.4 phosphate buffer, thermodynamic from solid
GSK3b = GSK3b (Homo sapiens (Human), UniProt P49841); experiment: Kinase Selectivity Profiling General Panel (ADP-Glo); assay type: biochemical; details: 1 μM compound, read-out: Percent enzyme activity inhibition, GSK3b
Description: (§1) After this incubation, 5 μl of ADP-Glo™ reagent was added to 5 μl reaction and incubated for 40 minutes. Then, 10 μl of Kinase Detection Reagent added to all assay wells in the assay plate and incubated at room temperature for 30 minutes. […]

FGFR1 = FGFR1 (Homo sapiens (Human), UniProt P11362); experiment: as above; assay type: biochemical; details: 1 μM compound, read-out: Percent enzyme activity inhibition, FGFR1
Description: as §1

AKT1 = AKT1 (Homo sapiens (Human), UniProt P31749); experiment: as above; assay type: biochemical; details: 1 μM compound, read-out: Percent enzyme activity inhibition, AKT1
Description: as §1

CHK1 = CHK1 (Homo sapiens (Human), UniProt O14757); experiment: as above; assay type: biochemical; details: 1 μM compound, read-out: Percent enzyme activity inhibition, CHK1
Description: as §1

SYK = SYK (Homo sapiens (Human), UniProt P43405); experiment: as above; assay type: biochemical; details: 1 μM compound, read-out: Percent enzyme activity inhibition, SYK
Description: as §1

PKCa = PKCa (Homo sapiens (Human), UniProt P17252); experiment: as above; assay type: biochemical; details: 1 μM compound, read-out: Percent enzyme activity inhibition, PKCa
Description: as §1

CK1a1 = CK1a1 (Homo sapiens (Human), UniProt P48729); experiment: as above; assay type: biochemical; details: 1 μM compound, read-out: Percent enzyme activity inhibition, CK1a1
Description: as §1

ROCK1 = ROCK1 (Homo sapiens (Human), UniProt Q13464); experiment: as above; assay type: biochemical; details: 1 μM compound, read-out: Percent enzyme activity inhibition, ROCK1
Description: as §1

MAPKAPK2 = MAPKAPK2 (Homo sapiens (Human), UniProt P49137); experiment: as above; assay type: biochemical; details: 1 μM compound, read-out: Percent enzyme activity inhibition, MAPKAPK2
Description: as §1

primary hTM cells = experiment: CellTox Green cytotoxicity assay in hTM cells; assay type: cell-based; details: 24 h, 48 h, 72 h
Excerpt: Commercially available RealTime-Glo™ MT cell viability (Promega, catalog #G9712) and CellTox™ Green cytotoxicity (Promega, catalog #G8731) assays were used in assessing effect of compounds on primary hTM cell viability and cytotoxicity. The RealTime-Glo™ MT cell viability assay is a nonlytic, homogeneous, bioluminescent method that determines the number of viable cells in culture by measuring the reducing potential of cells and thus metabolism (MT). Viable cells reduce the proprietary pro-substrate to generate a substrate for NanoLuc® luciferase. This substrate diffuses from cells into the surrounding culture medium, where it is rapidly used by the NanoLuc® Enzyme to produce a luminescent signal. In a contrasting and complementary manner, CellTox™ Green cytotoxicity assay measures changes in membrane integrity that occur as a result of cell death. This assay system uses a proprietary asymmetric cyanine dye that is excluded from viable cells but preferentially stains the dead cells' DNA. […]
Human™ cells were cultured and maintained as described in Example 12. […] Light emitted by luciferase and fluorescence emitted by dye binding to DNA (excitation 485 nm and emission 525 nm) were measured at 24 h, 48 h, and 72 h after incubation using plate based luminescence and fluorescence plate readers.

[3] = test system: New Zealand White rabbits; experiment: Phenol-induced chronic model of glaucoma, IOP; assay type: in vivo, rabbit
Excerpt: For these efficacy studies methods were followed as described in (Jacob et al, A promising drug candidate for the treatment of glaucoma based on a P2Y6-receptor agonist, Purinergic Signal. 2018 September; 14 (3): 271-284). In all studies, male New Zealand White rabbits were acclimatized for one week before the study. Animals were given food and water ad libitum. Body weights of rabbits ranged from 2 to 3 kg. Animals were trained for the IOP measurement procedure during the acclimation period in order to reduce stress and obtaining more accurate measurements during the study. IOP measurements were taken using the Icare® TONOVET Plus tonometer. […] The technique of use of the […] tonometer in rabbits was described previously (Gloe et al, Validation of the Icare® TONOVET Plus Rebound Tonometer in Normal Rabbit Eyes, Exp Eye Res. 2019 August; 185:107698). IOP readings are obtained only when the tonometer is held an appropriate distance and in the correct plane relative to the ocular surface. Green light appears when the orientation is correct, thereby minimizing operator errors. […] IOP was measured daily after phenol injection and IOP doubled in 8 days after phenol injection. […] IOP readings were taken on mornings of days 8 to 12 before compound application and 0.5 and 1 hour after morning application. […]

Sequence of ROCK1 (Q13464 whole entry): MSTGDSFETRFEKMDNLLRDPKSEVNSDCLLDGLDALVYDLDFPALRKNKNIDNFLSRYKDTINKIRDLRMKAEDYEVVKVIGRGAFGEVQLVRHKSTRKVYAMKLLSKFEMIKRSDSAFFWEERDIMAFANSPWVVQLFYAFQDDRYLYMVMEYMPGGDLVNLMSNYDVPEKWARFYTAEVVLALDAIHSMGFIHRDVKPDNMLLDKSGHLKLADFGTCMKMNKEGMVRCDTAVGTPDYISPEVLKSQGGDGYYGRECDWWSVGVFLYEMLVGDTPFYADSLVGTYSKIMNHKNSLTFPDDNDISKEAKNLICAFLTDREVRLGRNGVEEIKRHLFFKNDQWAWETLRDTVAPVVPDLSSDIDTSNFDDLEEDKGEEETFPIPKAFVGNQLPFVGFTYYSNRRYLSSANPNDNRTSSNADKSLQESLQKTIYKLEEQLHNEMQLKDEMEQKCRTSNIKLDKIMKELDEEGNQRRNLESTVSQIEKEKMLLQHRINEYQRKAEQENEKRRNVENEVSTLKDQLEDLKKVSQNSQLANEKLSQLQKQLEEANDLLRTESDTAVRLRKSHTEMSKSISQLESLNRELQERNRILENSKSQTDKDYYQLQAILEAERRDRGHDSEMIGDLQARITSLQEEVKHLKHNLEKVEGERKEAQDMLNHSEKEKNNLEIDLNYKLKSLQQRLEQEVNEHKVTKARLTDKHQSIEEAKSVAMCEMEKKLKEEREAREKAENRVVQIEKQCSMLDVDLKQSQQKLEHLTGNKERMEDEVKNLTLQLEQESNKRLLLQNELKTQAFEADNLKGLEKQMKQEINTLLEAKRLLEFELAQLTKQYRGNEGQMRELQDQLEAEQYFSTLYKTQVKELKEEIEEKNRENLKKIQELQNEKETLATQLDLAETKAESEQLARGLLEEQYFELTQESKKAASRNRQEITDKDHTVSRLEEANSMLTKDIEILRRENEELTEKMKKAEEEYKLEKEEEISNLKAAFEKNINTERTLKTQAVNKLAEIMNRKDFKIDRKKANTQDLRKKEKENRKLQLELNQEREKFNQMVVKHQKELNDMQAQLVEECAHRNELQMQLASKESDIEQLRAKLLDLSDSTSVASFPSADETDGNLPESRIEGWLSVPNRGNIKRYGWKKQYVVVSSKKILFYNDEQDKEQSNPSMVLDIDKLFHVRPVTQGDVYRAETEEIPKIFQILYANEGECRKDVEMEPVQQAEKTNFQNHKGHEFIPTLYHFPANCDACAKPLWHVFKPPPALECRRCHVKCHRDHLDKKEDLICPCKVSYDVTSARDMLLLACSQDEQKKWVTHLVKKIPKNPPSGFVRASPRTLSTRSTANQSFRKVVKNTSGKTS
Sequence of FGFR1 (P11362 22-822): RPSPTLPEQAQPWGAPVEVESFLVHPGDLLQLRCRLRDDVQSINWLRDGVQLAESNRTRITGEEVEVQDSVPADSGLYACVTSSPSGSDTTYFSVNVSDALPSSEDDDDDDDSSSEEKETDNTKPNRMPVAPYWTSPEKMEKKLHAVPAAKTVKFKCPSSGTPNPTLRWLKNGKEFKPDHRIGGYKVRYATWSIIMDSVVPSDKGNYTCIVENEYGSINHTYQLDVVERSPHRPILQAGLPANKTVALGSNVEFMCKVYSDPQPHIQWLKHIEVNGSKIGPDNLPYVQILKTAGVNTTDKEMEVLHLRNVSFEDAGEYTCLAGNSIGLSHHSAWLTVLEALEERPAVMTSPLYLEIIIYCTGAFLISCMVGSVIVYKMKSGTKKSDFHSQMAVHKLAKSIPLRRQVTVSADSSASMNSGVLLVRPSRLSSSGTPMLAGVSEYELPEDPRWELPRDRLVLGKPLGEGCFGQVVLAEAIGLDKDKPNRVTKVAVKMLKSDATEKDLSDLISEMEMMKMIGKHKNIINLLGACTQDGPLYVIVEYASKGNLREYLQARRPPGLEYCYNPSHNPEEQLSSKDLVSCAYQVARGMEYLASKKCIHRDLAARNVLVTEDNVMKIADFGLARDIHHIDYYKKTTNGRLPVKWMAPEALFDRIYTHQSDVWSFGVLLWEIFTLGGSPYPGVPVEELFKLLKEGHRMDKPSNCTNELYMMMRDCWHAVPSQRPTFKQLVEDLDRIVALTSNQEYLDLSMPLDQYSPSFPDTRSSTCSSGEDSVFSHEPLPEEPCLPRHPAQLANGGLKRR
Sequence of CK1a1 (P48729 whole entry): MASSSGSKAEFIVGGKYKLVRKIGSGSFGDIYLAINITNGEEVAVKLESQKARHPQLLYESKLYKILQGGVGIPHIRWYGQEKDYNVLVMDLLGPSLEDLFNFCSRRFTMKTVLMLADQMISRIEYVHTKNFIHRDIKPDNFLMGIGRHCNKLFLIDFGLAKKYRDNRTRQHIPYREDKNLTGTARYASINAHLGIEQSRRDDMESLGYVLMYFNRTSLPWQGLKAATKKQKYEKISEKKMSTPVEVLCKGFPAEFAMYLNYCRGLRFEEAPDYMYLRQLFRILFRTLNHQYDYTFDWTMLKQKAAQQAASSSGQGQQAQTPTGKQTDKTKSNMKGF
Sequence of CHK1 (O14757 whole entry): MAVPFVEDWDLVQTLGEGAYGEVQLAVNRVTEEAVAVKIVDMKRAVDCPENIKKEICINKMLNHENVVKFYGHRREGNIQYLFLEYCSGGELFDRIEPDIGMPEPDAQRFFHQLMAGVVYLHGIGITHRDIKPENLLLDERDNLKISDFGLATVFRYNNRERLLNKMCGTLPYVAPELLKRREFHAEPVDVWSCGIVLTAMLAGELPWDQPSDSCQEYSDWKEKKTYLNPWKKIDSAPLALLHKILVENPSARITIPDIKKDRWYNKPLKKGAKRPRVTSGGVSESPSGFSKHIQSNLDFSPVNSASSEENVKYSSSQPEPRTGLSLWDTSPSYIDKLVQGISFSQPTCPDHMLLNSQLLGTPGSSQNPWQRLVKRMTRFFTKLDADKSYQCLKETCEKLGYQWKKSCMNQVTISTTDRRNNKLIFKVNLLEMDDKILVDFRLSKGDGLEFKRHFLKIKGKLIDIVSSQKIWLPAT
Sequence of MAPKAPK2 (P49137 whole entry): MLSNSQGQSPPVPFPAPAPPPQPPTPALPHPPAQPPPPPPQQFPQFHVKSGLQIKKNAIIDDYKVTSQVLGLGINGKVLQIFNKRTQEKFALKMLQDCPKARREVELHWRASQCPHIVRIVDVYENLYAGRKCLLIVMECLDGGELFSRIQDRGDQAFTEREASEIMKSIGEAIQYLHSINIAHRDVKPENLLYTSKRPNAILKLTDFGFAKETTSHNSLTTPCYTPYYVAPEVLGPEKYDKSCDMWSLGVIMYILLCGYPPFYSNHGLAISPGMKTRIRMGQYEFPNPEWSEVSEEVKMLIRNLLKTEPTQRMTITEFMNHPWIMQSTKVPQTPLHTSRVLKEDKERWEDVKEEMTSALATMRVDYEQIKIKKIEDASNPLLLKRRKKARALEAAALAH
Sequence of GSK3b (P49841 whole entry): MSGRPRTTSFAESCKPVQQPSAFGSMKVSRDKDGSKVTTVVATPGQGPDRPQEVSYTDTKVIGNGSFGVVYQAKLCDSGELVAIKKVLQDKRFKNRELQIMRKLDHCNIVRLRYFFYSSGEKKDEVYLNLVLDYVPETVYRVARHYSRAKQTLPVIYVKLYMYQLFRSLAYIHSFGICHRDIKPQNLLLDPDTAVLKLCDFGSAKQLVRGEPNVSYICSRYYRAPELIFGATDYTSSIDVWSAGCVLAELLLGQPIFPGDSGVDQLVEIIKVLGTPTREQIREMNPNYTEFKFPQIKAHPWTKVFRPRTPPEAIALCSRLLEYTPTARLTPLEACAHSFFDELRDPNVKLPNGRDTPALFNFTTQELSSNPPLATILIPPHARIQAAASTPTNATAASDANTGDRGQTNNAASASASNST
Sequence of AKT1 (P31749 whole entry): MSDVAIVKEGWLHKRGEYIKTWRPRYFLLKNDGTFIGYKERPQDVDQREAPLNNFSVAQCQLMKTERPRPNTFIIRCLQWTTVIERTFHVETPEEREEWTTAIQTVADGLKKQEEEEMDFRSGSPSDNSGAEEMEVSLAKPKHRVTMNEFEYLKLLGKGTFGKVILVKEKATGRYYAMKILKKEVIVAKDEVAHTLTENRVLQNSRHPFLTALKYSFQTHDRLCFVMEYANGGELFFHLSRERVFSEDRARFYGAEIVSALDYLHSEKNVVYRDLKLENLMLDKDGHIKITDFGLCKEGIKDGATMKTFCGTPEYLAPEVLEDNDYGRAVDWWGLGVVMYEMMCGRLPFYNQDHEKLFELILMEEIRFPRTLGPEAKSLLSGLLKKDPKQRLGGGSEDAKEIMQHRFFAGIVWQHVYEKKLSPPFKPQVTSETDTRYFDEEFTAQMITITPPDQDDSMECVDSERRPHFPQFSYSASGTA

SMILES: Cl.Cl.NCC(C(=O)Nc1ccc2cnccc2c1)c1ccc(B(O)O)cc1 (centres unmarked) [Compound 10•2HCl]
- Duration of IOP effect ([1]; experiment 1, 1 mg/ml eye drop): 6 h
- Effect on IOP compared to saline only group ([1]; experiment 1, 30 μl eye drop in saline (1 mg/ml, 2.34 mM) two hours after hyaluronate injection): decreased IOP significantly within 1 hour after application
- Effect on IOP ([1]; experiment 2, compound 10.2HCl 1 mg/ml (2.34 mM), Netarsudil.2HCl 0.25 mg/ml (0.47 mM), 30 μL eye drop): reduced IOP significantly within 1 hour after eye drop application
- Cell viability (ATP amount) (HEK293 cells): same amount of ATP as cells without inhibitor
- solubility [2]: 39.1 µM
- inhibition at 1 µM (GSK3b): 0%
- inhibition at 1 µM (FGFR1): 35%
- inhibition at 1 µM (AKT1): 55%
- inhibition at 1 µM (CHK1): 21%
- inhibition at 1 µM (SYK): 2%
- inhibition at 1 µM (PKCa): 72%
- inhibition at 1 µM (CK1a1): 0%
- inhibition at 1 µM (ROCK1): 98%
- inhibition at 1 µM (MAPKAPK2): 30%
- Cytotoxicity / membrane integrity (in words) (primary hTM cells): no effect on viability or membrane integrity
- Effect on IOP after first application ([3]; 1 mg/ml (2.34 mM) in saline, day 8 after phenol injection): decrease of IOP to normal levels within 1 hour after application
- Effect of subsequent twice daily application on IOP ([3]; 1 mg/ml twice daily, days 8 to 12): maintained normal IOP
